The nature of this series: Storage stability of the crystal in a hermetically sealed glass bottle, content (residual percentage) by HPLC. The format is physicochemical. The conditions noted are these: for description: appearance. How it is done:
The crystal of a sodium salt obtained in Example 1 (about 5 mg) was served into a colorless glass bottle, the bottle was hermetically sealed by a stopper, and stability of the crystal during storage at 60° C. for 4 weeks was examined. 25 ml of a sample (concentration: about 0.2 mg/ml) was prepared by dissolving the sample after completion of storage in a mobile phase. The sample solution along with a standard solution prepared by using the initial lot (a frozen sample stored for the same term), was analyzed under the HPLC conditions shown below, and the content (residual percentage) was calculated from the peak area obtained.
[HPLC Analytical Conditions]
Detection wavelength: UV 275 nm
Mobile phase: Fluid prepared by adding phosphoric acid to water/acetonitrile/triethylamine (63:37:1) to adjust pH 7
Column temperature: 40° C.
Sample injection volume: 10 μL

On to `Cc1c(OCC(F)(F)F)ccnc1C[S@@+]([O-])c1nc2ccccc2[n-]1.[Na+]` [Example 1, sodium salt of (R)-2-[[[3-methyl-4-(2,2,2-trifluoroethoxy)-2-pyridinyl]methyl]sulfinyl]-1H-benzimidazole], for which the “content (residual percentage)” value reads like this: (freeze-storage for the same term (initial lot used as standard)) “[100] %”; (solid crystal stored at 60° C. (airtight) for 4 weeks, HPLC peak area vs frozen initial lot, listed as crystal of Ex. 1) 99.2%; (solid crystal stored at 60° C. (airtight) for 4 weeks, HPLC peak area vs frozen initial lot, listed as crystal of a sodium salt of R(+)-lansoprazole) “exceeding 99%”. Also, the description entry is recorded as “nearly white” (freeze-storage) and “nearly white” (solid crystal stored at 60° C. (airtight) for 4 weeks).
